Data from ChEMBL document CHEMBL3885861, “Open TG-GATES”.

Species on record: Rattus norvegicus
Assay: Open TG-GATES - Regimen: Daily Repeat
Assay type: toxicity, organism-based, Sprague-Dawley
Set-up: regimen Daily Repeat, gender Male, age 6 weeks
Conditions: in vivo, po, route gavage; for Bas / Eos / Fbg / Hb / Ht / Lym / MCHC / MCV / Mono / PT / Plat / RBC / Ret / WBC / Neu: tissue Blood; for ALP / ALT / AST / CRE / Ca / Cl / DBIL / GLC / IP / K / LDH / Na / PL / RALB / TBIL / TC / TG / TP / gamma-GTP / BUN: tissue Plasma
[1] = 0 mg/kg, 72 h, dose level Control, time 3 day
[2] = 0 mg/kg, […], dose level Control, time 7 day
[3] = 0 mg/kg, […], dose level Control, time 14 day
[4] = 0 mg/kg, […], dose level Control, time 28 day
[5] = 100 mg/kg, 72 h, dose level Low, time 3 day
[6] = 100 mg/kg, […], dose level Low, time 7 day
[7] = 100 mg/kg, […], dose level Low, time 14 day
[8] = 100 mg/kg, […], dose level Low, time 28 day
[9] = 300 mg/kg, 72 h, dose level Middle, time 3 day

## O=C(O)c1cccnc1 [NIACIN]
[1]
  TERMINAL_BW: 241.1 g
  Bas: 0%
  Eos: 0.8%
  Fbg: 321 mg/dL
  Hb: 12.8 g/dL
  Ht: 38.2%
  Lym: 81.2%
  MCHC: 33.5%
  MCV: 62.4 fL
  Mono: 3%
  PT: 15.9 s
  Plat: 125.7 x10_4/uL
  RBC: 612.4 x10_4/ul
  Ret: 7.8%
  WBC: 116.2 x10_2/uL
  ALP: 1807.6 IU/L
  ALT: 48 IU/L
  AST: 73.2 IU/L
  CRE: 0.2 mg/dL
  Ca: 10.7 mg/dL
  Cl: 104.2 meq/L
  DBIL: 0 mg/dL
  GLC: 201.8 mg/dL
  IP: 7.7 mg/dL
  K: 4.4 meq/L
  LDH: 161.4 IU/L
  Na: 139.2 meq/L
  PL: 151.6 mg/dL
  RALB: 3.1 g/dL
  TBIL: 0 mg/dL
  TC: 80 mg/dL
  TG: 92.8 mg/dL
  TP: 5.6 g/dL
  gamma-GTP: 1.4 IU/L
[2]
  TERMINAL_BW: 268.8 g
  Bas: 0%
  Eos: 1%
  Fbg: 334.8 mg/dL
  Ht: 41.3%
  Lym: 78.2%
  MCHC: 34.3%
  Mono: 3.2%
  Neu: 16.8%
  PT: 16.5 s
  Plat: 116.1 x10_4/uL
  RBC: 681 x10_4/ul
  Ret: 5.5%
  WBC: 120.8 x10_2/uL
  ALP: 1431.4 IU/L
  ALT: 37.2 IU/L
  AST: 67 IU/L
  CRE: 0.1 mg/dL
  Ca: 10.8 mg/dL
  Cl: 105.2 meq/L
  DBIL: 0 mg/dL
  GLC: 190.4 mg/dL
  IP: 7.4 mg/dL
  K: 4.2 meq/L
  LDH: 155.6 IU/L
  Na: 139.8 meq/L
  PL: 160.4 mg/dL
  RALB: 3 g/dL
  TBIL: 0 mg/dL
  TC: 78.6 mg/dL
  TG: 130 mg/dL
  TP: 5.7 g/dL
  gamma-GTP: 1.6 IU/L
[3]
  TERMINAL_BW: 327.5 g
  Bas: 0%
  Eos: 1%
  Fbg: 329 mg/dL
  Ht: 41.5%
  Lym: 77.8%
  MCHC: 34.2%
  MCV: 60.4 fL
  Mono: 2.6%
  Neu: 17%
  PT: 15.9 s
  Plat: 115.7 x10_4/uL
  RBC: 688.8 x10_4/ul
  Ret: 5.1%
  WBC: 127.5 x10_2/uL
  ALP: 1595.6 IU/L
  AST: 68 IU/L
  CRE: 0.2 mg/dL
  Ca: 10.6 mg/dL
  Cl: 104.2 meq/L
  DBIL: 0 mg/dL
  GLC: 198.2 mg/dL
  IP: 7.1 mg/dL
  K: 4 meq/L
  LDH: 163.6 IU/L
  Na: 138 meq/L
  PL: 156 mg/dL
  RALB: 3.1 g/dL
  TBIL: 0.006 mg/dL
  TC: 75.6 mg/dL
  TG: 144.2 mg/dL
  TP: 5.9 g/dL
  gamma-GTP: 1 IU/L
[4]
  TERMINAL_BW: 405.7 g
  Bas: 0%
  Eos: 1.2%
  Fbg: 331.4 mg/dL
  Hb: 15 g/dL
  Ht: 42.7%
  Lym: 80.6%
  MCHC: 35.2%
  MCV: 56.6 fL
  Mono: 2%
  Neu: 15%
  PT: 16.5 s
  Plat: 89.6 x10_4/uL
  RBC: 754.4 x10_4/ul
  Ret: 3%
  WBC: 119.1 x10_2/uL
  ALP: 1086.6 IU/L
  ALT: 37.4 IU/L
  AST: 63.8 IU/L
  BUN: 17.8 mg/dL
  CRE: 0.2 mg/dL
  Ca: 10.1 mg/dL
  Cl: 106.4 meq/L
  DBIL: 0 mg/dL
  GLC: 214.4 mg/dL
  IP: 6.9 mg/dL
  K: 4.2 meq/L
  LDH: 150.6 IU/L
  Na: 142.8 meq/L
  PL: 149.4 mg/dL
  RALB: 3.1 g/dL
  TBIL: 0.012 mg/dL
  TC: 76.6 mg/dL
  TG: 121 mg/dL
  TP: 5.9 g/dL
  gamma-GTP: 2.4 IU/L
[5]
  TERMINAL_BW: 239.7 g
  Bas: 0%
  Eos: 1.2%
  Fbg: 317.2 mg/dL
  Hb: 13.7 g/dL
  Ht: 40.5%
  Lym: 70.2%
  MCV: 63.5 fL
  Mono: 4%
  Neu: 23.2%
  Plat: 107.5 x10_4/uL
  RBC: 637 x10_4/ul
  Ret: 6.9%
  WBC: 128.4 x10_2/uL
  ALP: 1717.8 IU/L
  ALT: 49 IU/L
  AST: 79.2 IU/L
  BUN: 16 mg/dL
  CRE: 0.1 mg/dL
  Ca: 10.8 mg/dL
  Cl: 104.2 meq/L
  DBIL: 0 mg/dL
  GLC: 199.8 mg/dL
  IP: 7.4 mg/dL
  K: 3.9 meq/L
  LDH: 171.8 IU/L
  Na: 139.2 meq/L
  PL: 163.8 mg/dL
  RALB: 3.1 g/dL
  TBIL: 0 mg/dL
  TC: 84.2 mg/dL
  TG: 110.8 mg/dL
  TP: 5.8 g/dL
  gamma-GTP: 1.2 IU/L
[6]
  TERMINAL_BW: 273.1 g
  Bas: 0%
  Eos: 1%
  Fbg: 316 mg/dL
  Hb: 13.5 g/dL
  Ht: 39.5%
  Lym: 82%
  MCHC: 34.1%
  MCV: 60.8 fL
  Mono: 3%
  Neu: 12.8%
  PT: 16 s
  Plat: 109.3 x10_4/uL
  RBC: 650 x10_4/ul
  Ret: 5.9%
  WBC: 109.2 x10_2/uL
  ALP: 1740.2 IU/L
  ALT: 44.4 IU/L
  AST: 69 IU/L
  BUN: 17.2 mg/dL
  CRE: 0.2 mg/dL
  Ca: 10.7 mg/dL
  Cl: 104.8 meq/L
  DBIL: 0 mg/dL
  GLC: 171.4 mg/dL
  IP: 7.3 mg/dL
  K: 4.7 meq/L
  LDH: 141 IU/L
  Na: 138.8 meq/L
  PL: 145 mg/dL
  RALB: 2.9 g/dL
  TBIL: 0 mg/dL
  TC: 66.6 mg/dL
  TG: 150 mg/dL
  TP: 5.5 g/dL
  gamma-GTP: 1.4 IU/L
[7]
  TERMINAL_BW: 326.9 g
  Bas: 0%
  Eos: 1%
  Fbg: 330.8 mg/dL
  Ht: 41.5%
  Lym: 75.2%
  MCHC: 34%
  Mono: 2.6%
  Neu: 20%
  PT: 15.8 s
  Plat: 107.6 x10_4/uL
  RBC: 685 x10_4/ul
  Ret: 4.7%
  WBC: 102.7 x10_2/uL
  ALP: 1532.6 IU/L
  ALT: 42.8 IU/L
  AST: 73.6 IU/L
  BUN: 17 mg/dL
  CRE: 0.2 mg/dL
  Ca: 10.5 mg/dL
  Cl: 104.6 meq/L
  DBIL: 0 mg/dL
  GLC: 196.4 mg/dL
  IP: 6.4 mg/dL
  K: 4 meq/L
  LDH: 209 IU/L
  Na: 138.4 meq/L
  PL: 144.4 mg/dL
  RALB: 3 g/dL
  TBIL: 0.002 mg/dL
  TC: 66.8 mg/dL
  TG: 150.8 mg/dL
  TP: 5.8 g/dL
  gamma-GTP: 1.4 IU/L
[8]
  TERMINAL_BW: 387.9 g
  Bas: 0%
  Eos: 1%
  Fbg: 330.4 mg/dL
  Hb: 15.2 g/dL
  Ht: 43.1%
  Lym: 83.4%
  MCHC: 35.3%
  MCV: 56 fL
  Mono: 2.4%
  Neu: 11.8%
  PT: 16.5 s
  Plat: 102.2 x10_4/uL
  RBC: 770 x10_4/ul
  Ret: 2.8%
  WBC: 117.4 x10_2/uL
  ALP: 1249.8 IU/L
  ALT: 39.8 IU/L
  AST: 64.6 IU/L
  BUN: 18.2 mg/dL
  CRE: 0.2 mg/dL
  Ca: 10.4 mg/dL
  Cl: 107 meq/L
  DBIL: 0 mg/dL
  GLC: 192.8 mg/dL
  IP: 6.5 mg/dL
  K: 4.2 meq/L
  LDH: 129.4 IU/L
  Na: 143.4 meq/L
  PL: 147.6 mg/dL
  RALB: 3.1 g/dL
  TBIL: 0.014 mg/dL
  TC: 70.6 mg/dL
  TG: 158.8 mg/dL
  TP: 6 g/dL
  gamma-GTP: 2 IU/L
[9]
  TERMINAL_BW: 241.8 g
  Bas: 0%
